Broadly, the kinact/KI is the second-order rate constant of inactivation. The Cmax is the highest concentration seen after dosing. As a reminder, the inhibition is the percentage by which the read-out fell short of the control.

Molecules are shown by their SMILES.

Data set [1] deals with T1, CYP3A4 (Homo sapiens, UniProt P08684). Description: Ratio of Kinact to Ki for CYP3A4 (unknown origin). It counts as ADME.
Data set [2] deals with T2, Cytochrome P450 2D6 (Homo sapiens, UniProt P10635). Description: Inhibition of human His-tagged CYP2D6 expressed in Escherichia coli TOPP3 using 7-ethoxy-4-(trifluoromethyl)coumarin as substrate after 15 mins by fluorescence assay in presence of NADPH and cytochrome b5. The class given is ADME. Particulars: 0.25 h; call rule not given here.
Data set [3] deals with T3, Cytochrome P450 3A4 (Homo sapiens, UniProt P08684). Description: Inhibition of His-tagged CYP3A4 (unknown origin) expressed in Escherichia coli TOPP3 using BFC as substrate after 15 mins by fluorescence assay in presence of NADPH. The class given is ADME. Particulars: 0.25 h.
Data set [4] addresses T3, Cytochrome P450 3A4. In words: Inhibition of human His-tagged CYP3A4 expressed in Escherichia coli TOPP3 using BFC as substrate assessed as unmodified heme at 100 uM after 30 mins by HPLC analysis in presence of NADPH and cytochrome b5. The class given is ADME. Particulars: 0.5 h.
The target of data set [5] is T3, Cytochrome P450 3A4. Description: Inhibition of His-tagged CYP3A4 (unknown origin) expressed in Escherichia coli TOPP3 using BFC as substrate after 15 mins by fluorescence assay in presence of NADPH and cytochrome b5. The class given is ADME. Particulars: 0.25 h.
Data set [6] is described as follows: Cmax in human. It counts as ADME, organism-based. To be noted: in vivo.
Data set [7] has as its target T4, Cytochrome P450 3A5 (Homo sapiens, UniProt P20815). In words: Inhibition of human His-tagged CYP3A5 expressed in Escherichia coli TOPP3 using BFC as substrate after 15 mins by fluorescence assay in presence of NADPH and cytochrome b5. The class given is ADME. Particulars: 0.25 h.
For data set [8], the target named is T5, CYP3A5 (Homo sapiens, UniProt P20815). Description: Inhibition of human His-tagged CYP3A5 expressed in Escherichia coli TOPP3 using BFC as substrate assessed as residual activity after 30 mins by fluorescence assay in presence of NADPH and cytochrome b5 relative to control. The class given is ADME. To be noted: probe BFC, read-out: Activity.
Data set [9] deals with T1, CYP3A4. Description: Inhibition of human His-tagged CYP3A4 expressed in Escherichia coli TOPP3 using BFC as substrate at 100 uM after 30 mins in presence of NADPH and cytochrome b5. It counts as ADME. To be noted: probe BFC.
Data set [10] has as its target T6, Cytochrome P450 2B6 (Homo sapiens, UniProt P20813).
T6 sequence (P20813 whole entry): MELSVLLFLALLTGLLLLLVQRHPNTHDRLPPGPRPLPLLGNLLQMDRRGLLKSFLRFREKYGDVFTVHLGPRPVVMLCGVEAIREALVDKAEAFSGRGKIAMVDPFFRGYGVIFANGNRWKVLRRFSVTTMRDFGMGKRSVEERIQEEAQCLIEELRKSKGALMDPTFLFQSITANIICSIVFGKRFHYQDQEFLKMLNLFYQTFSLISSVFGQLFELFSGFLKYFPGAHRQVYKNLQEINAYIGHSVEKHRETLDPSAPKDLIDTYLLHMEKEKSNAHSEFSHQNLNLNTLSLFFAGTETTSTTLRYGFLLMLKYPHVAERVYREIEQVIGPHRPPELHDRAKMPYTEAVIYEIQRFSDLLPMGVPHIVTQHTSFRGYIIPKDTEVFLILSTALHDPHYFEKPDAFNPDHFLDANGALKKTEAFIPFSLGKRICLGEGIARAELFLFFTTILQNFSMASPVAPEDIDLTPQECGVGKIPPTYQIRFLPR
Description: Inhibition of human His-tagged CYP2B6 expressed in Escherichia coli TOPP3 using 7-ethoxy-4-(trifluoromethyl)coumarin as substrate after 15 mins by fluorescence assay in presence of NADPH and cytochrome b5. The class given is ADME. Particulars: 0.25 h.

Data set [11] has as its target T3, Cytochrome P450 3A4. Description: Inhibition of human His-tagged CYP3A4 expressed in Escherichia coli TOPP3 using BFC as substrate at 10 to 100 uM by fluorescence assay in presence of NADPH and cytochrome b5. To be noted: TDE = time-dependent effect. The class given is ADME.
In data set [12] the target is T3, Cytochrome P450 3A4. In words: Inhibition of human His-tagged CYP3A4 expressed in Escherichia coli TOPP3 using BFC as substrate after 15 mins by fluorescence assay in presence of NADPH and cytochrome b5. To be noted: 0.25 h. It counts as ADME.
Data set [13] has as its target T3, Cytochrome P450 3A4. In words: Inhibition of human His-tagged CYP3A4 expressed in Escherichia coli TOPP3 using BFC as substrate at 100 uM after 30 mins by spectrophotometry in presence of cytochrome b5. It counts as ADME. To be noted: 0.5 h.
The target in data set [14] is T6, Cytochrome P450 2B6. Description: Inhibition of human His-tagged CYP2B6 expressed in Escherichia coli TOPP3 using 7-ethoxy-4-(trifluoromethyl)coumarin as substrate after 15 mins by fluorescence assay in presence of NADPH. The class given is ADME. To be noted: 0.25 h.
Data set [15] has as its target T1, CYP3A4. In words: Inhibition of human His-tagged CYP3A4 expressed in Escherichia coli TOPP3 using BFC as substrate assessed as residual activity after 30 mins by fluorescence assay in presence of NADPH and cytochrome b5 relative to control. It counts as ADME. Particulars: probe BFC, read-out: Activity.
For data set [16], the target named is T5, CYP3A5. Description: Inhibition of human His-tagged CYP3A5 expressed in Escherichia coli TOPP3 using BFC as substrate assessed as residual activity by fluorescence assay in presence of cytochrome b5. It counts as ADME. To be noted: probe BFC.
Data set [17] deals with T4, Cytochrome P450 3A5. Description: Inhibition of human His-tagged CYP3A5 expressed in Escherichia coli TOPP3 using BFC as substrate after 15 mins by fluorescence assay in presence of NADPH. The class given is ADME. To be noted: 0.25 h.
Data set [18] concerns the target T2, Cytochrome P450 2D6. Description: Inhibition of human His-tagged CYP2D6 expressed in Escherichia coli TOPP3 using 7-ethoxy-4-(trifluoromethyl)coumarin as substrate after 15 mins by fluorescence assay in presence of NADPH. The class given is ADME. Particulars: 0.25 h.
Data set [19] addresses T1, CYP3A4. In words: Inhibition of human His-tagged CYP3A4 expressed in Escherichia coli TOPP3 using BFC as substrate assessed as residual activity after 10 mins by fluorescence assay in presence of NADPH and cytochrome b5 relative to control. To be noted: probe BFC, read-out: Activity. It counts as ADME.
The target in data set [20] is T1, CYP3A4. Description: Inhibition of human His-tagged CYP3A4 expressed in Escherichia coli TOPP3 using BFC as substrate assessed as residual activity by fluorescence assay in presence of cytochrome b5. Particulars: probe BFC. It counts as ADME.
Data set [21] addresses T5, CYP3A5. In words: Inhibition of human His-tagged CYP3A5 expressed in Escherichia coli TOPP3 using BFC as substrate assessed as residual activity after 10 mins by fluorescence assay in presence of NADPH and cytochrome b5 relative to control. The class given is ADME. Particulars: probe BFC, read-out: Activity.
For data set [22], the target named is T5, CYP3A5. Description: Inhibition of human His-tagged CYP3A5 expressed in Escherichia coli TOPP3 using BFC as substrate assessed as residual activity after 20 mins by fluorescence assay in presence of NADPH and cytochrome b5 relative to control. The class given is ADME. To be noted: probe BFC, read-out: Activity.
For data set [23], the target named is T1, CYP3A4. In words: Inhibition of human His-tagged CYP3A4 expressed in Escherichia coli TOPP3 using BFC as substrate assessed as residual activity after 20 mins by fluorescence assay in presence of NADPH and cytochrome b5 relative to control. The class given is ADME. Particulars: probe BFC, read-out: Activity.
Data set [24] concerns the target T1, CYP3A4. Description: Inhibition of human His-tagged CYP3A4 expressed in Escherichia coli TOPP3 using BFC as substrate at 100 uM after 30 mins by spectrophotometry in presence of NADPH and cytochrome b5 relative to control. It counts as ADME. Particulars: probe BFC.

T5 sequence (P20815 whole entry): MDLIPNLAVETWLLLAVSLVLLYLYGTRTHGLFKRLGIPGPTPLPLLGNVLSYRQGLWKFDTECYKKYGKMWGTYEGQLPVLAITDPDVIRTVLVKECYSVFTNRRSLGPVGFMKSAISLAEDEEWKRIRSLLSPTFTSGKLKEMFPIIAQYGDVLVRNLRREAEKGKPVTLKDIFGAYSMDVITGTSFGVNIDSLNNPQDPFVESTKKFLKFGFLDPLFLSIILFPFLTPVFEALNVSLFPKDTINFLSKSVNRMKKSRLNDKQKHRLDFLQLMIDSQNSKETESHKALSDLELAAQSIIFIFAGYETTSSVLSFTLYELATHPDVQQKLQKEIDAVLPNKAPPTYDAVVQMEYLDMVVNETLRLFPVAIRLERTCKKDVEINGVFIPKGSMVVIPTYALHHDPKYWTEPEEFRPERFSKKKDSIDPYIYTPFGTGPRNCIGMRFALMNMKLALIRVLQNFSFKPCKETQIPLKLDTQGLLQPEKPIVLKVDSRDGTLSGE
T1 sequence (P08684 whole entry): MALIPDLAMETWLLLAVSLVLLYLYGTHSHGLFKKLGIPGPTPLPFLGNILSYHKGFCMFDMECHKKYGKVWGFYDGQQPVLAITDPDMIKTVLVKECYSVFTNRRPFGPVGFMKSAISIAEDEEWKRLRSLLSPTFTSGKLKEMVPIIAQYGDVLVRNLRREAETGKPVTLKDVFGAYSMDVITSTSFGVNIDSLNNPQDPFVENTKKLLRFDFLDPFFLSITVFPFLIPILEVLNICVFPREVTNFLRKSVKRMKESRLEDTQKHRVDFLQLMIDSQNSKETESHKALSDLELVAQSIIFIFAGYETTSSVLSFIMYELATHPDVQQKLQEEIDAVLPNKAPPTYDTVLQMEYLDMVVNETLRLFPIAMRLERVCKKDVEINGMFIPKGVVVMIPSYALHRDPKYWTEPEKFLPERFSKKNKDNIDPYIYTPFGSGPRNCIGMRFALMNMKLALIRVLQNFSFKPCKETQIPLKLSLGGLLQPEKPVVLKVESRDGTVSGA
T3 sequence (P08684 whole entry): as above
T2 sequence (P10635 whole entry): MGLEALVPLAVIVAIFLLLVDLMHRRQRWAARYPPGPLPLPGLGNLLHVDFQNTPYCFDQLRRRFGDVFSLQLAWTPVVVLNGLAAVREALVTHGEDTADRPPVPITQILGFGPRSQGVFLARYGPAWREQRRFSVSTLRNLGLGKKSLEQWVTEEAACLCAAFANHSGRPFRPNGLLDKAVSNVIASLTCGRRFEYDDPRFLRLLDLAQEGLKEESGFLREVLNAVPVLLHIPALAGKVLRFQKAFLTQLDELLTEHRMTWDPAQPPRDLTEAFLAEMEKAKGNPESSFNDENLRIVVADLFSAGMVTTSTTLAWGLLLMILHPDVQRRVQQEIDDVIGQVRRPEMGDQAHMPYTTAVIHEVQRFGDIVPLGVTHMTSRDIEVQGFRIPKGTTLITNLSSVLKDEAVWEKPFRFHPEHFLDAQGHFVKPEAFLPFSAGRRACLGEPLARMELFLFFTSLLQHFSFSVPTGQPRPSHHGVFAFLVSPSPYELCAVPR
T4 sequence (P20815 whole entry): as the sequence (P20815 whole entry) above

In the case of `CC#C[C@]1(O)CC[C@H]2[C@@H]3CCC4=CC(=O)CCC4=C3[C@@H](c3ccc(N(C)C)cc3)C[C@@]21C` [MIFEPRISTONE], on CYP3A4 [1], the kinact/KI is 333 M⁻¹ s⁻¹.

For `O=C(Nc1ccc(OC(F)(F)F)cc1)c1sccc1NCc1ccnc2ccccc12` [OSI-930], the “inhibition (INH)” value on Cytochrome P450 2D6 [2] was “Not Active”; on Cytochrome P450 3A4 [3] it was “Active”; at Cytochrome P450 3A4 [4], “Active”; at Cytochrome P450 3A4 [5] it was “Active”; on Cytochrome P450 3A5 [7] it was “Not Active”; on Cytochrome P450 2B6 [10], “Not Active”. Further, the “inhibition (INH)” value is listed as “tde” on Cytochrome P450 3A4 [11]; “Dose-dependent effect” on Cytochrome P450 3A4 [12]; “Not Active” on Cytochrome P450 3A4 [13]; “Not Active” at Cytochrome P450 2B6 [14]; “Not Active” at Cytochrome P450 3A5 [17]; “Not Active” at Cytochrome P450 2D6 [18]. In data set [6], this compound yielded a peak concentration (Cmax) of 1700 nM. Besides, the activity at 0.5 h at CYP3A5 [8] was determined as 98%; on CYP3A4 [15], 39%. For the same compound, the inhibition at 0.5 h, 100 µM stood at 75% at CYP3A4 [9] and 70% at CYP3A4 [24]. Moreover, the activity at CYP3A5 [16] and on CYP3A4 [20] was 100% throughout. Moreover, the activity at 10 min is 71% on CYP3A4 [19] and 113% at CYP3A5 [21]. The activity at 20 min at CYP3A5 [22] turned out to be 109%; at CYP3A4 [23] it was 50%.

For the compound `CC/C(=C(\c1ccccc1)c1ccc(OCCN(C)C)cc1)c1ccccc1` [TAMOXIFEN], the kinact/KI at CYP3A4 [1] was 333 M⁻¹ s⁻¹.

For the compound `C#C[C@]1(O)CC[C@H]2[C@@H]3CCc4cc(O)ccc4[C@H]3CC[C@@]21C` [ETHINYL ESTRADIOL], at CYP3A4 [1], the kinact/KI was 667 M⁻¹ s⁻¹.

With `CC(C)=CCC/C(C)=C/COc1c2ccoc2cc2oc(=O)ccc12` [BERGAMOTTIN], at CYP3A4 [1], the inactivation efficiency (kinact/KI) is 667 M⁻¹ s⁻¹.
